The values below come from patent US20210290648A1, “Potentiation of B-Lactam Antibiotics and B-Lactam/B-Lactamase Inhibitor Combinations Against Multidrug and Extensively Drug-Resistant Pseudomonas Aeruginosa Using Non-Ribosomal Tobramycin-Cyclam Conjugates” (University of Manitoba, priority 2018, published 2021).

The test system of data set [1] is β-lactamase-harboring MDR P. aeruginosa clinical isolates. Kind of data set: Triple combination susceptibility (β-lactam + avibactam + compound 2). It is filed as cell-based, Pseudomonas aeruginosa. From the text:
The diazabicyclooctane β-lactamase inhibitor, avibactam, is able to inhibit a wide range of serine β-lactamases (class A, C, and D) but not metallo-β-lactamases (class B) (50, 51).^50,51 However, the high concentration of avibactam required to neutralize the effects of β-lactamase enzymes in these phenotypes is indicative of concomitant permeability barriers in the isolates, such as reduced porin uptake. […] The results of this study are shown in (FIG. 6). All isolates were resistant to all three β-lactam antibiotics used for the study. […] As expected, the study with meropenem was slightly different from others.
(§1) Antimicrobial Susceptibility Assay. The in vitro antimicrobial activity of all compounds/antibiotics against a panel of bacteria was evaluated by microbroth dilution method in accordance with the Clinical and Laboratory Standards Institute (CLSI) guidelines. Overnight grown bacterial cultures were diluted in saline to achieve a 0.5 McFarland turbidity, followed by 1:50 dilution in Mueller-Hinton broth (MHB) for inoculation to a final concentration of approximately 5×10^5CFU/mL. The antimicrobial agents were 2-fold serially diluted in MHB in a 96-well plate and incubated at 37° C. with equal volumes of inoculum for 18 h. The lowest concentration that prevented the visible growth of bacteria was defined as the MIC for each antimicrobial agent. The broth with or without bacterial cells was used as positive or negative control, respectively.
Checkerboard Assay. Combination studies with different antibiotics were performed in 96-well plates as previously described (22). Briefly, the antibiotic of interest was serially diluted in MHB along the abscissa while the adjuvant (newly synthesized conjugates) was serially diluted in MHB along the ordinate. This creates a 10×7 matrix wherein each well consists of a combination of different antibiotic and adjuvant concentrations. Overnight grown bacterial cultures were diluted in saline to achieve a 0.5 McFarland turbidity, followed by 1:50 dilution in Mueller-Hinton broth (MHB) for inoculation to a final concentration of approximately 5×10^5CFU/mL. Equal volume of this bacterial culture was then added to each well and incubated at 37° C. for 18 h. After incubation, the plates were read on EMax® Plus microplate reader (Molecular Devices, Sunnyvale, Calif., USA) at 590 nm. MIC was recorded as wells with the lowest concentration of drugs with no bacterial growth. The fractional inhibitory concentration (FIC) for each antibiotic was calculated by dividing the MIC of the antibiotic in the presence of adjuvant by the MIC of the antibiotic alone. Similarly, the FIC of adjuvant was calculated by dividing the MIC of the adjuvant in the presence of antibiotic by the MIC of the adjuvant alone. FIC index is the sum of both FICs. FIC indices of <0.5 were deemed synergistic; 0.5-4, no interaction; and >4, antagonistic.

For the next data set, the system named is E. coli ATCC 25922. As to the kind of experiment: MIC, microbroth dilution. Particulars: standalone. It is filed as cell-based. As for the experimental part: as §1
On the technique in general: Dilution methods test growth across graded concentrations, often in twofold steps.

The subject of the next data set is MSSE CANWARD-2008 81388. Kind of data set: MIC, microbroth dilution. Particulars: standalone. It is filed as cell-based. The protocol: as §1
For the next data set, the system named is MRSA ATCC 33592. Kind of data set: MIC, microbroth dilution. It is filed as cell-based. Particulars: standalone. The protocol:
as §1

For data set [2] the following is noted: humans; cited from earlier work.

One may read the MIC as the lowest concentration found to suppress growth. Lower therefore signals greater potency. Consider “5-O-(Octylcyclam)-tobramycin.9TFA [Compound 2]”, for which the “effect on activity of ceftolozane-tazobactam combinations” value in data set [1] (all β-lactamase-harboring isolates tested) is reported as “did not improve the activity”. Moreover, in data set [1] (aztreonam + avibactam + compound 2, 8 μM each), the “isolates below aztreonam susceptible breakpoint” value was “all five isolates”. In data set [1] (aztreonam + single adjuvant 8 μM), the “isolates reaching aztreonam susceptibility breakpoint (≤8 μg/ml)” value was “two out of five”. In addition, the “isolates below ceftazidime susceptible breakpoint” value in data set [1] (ceftazidime + avibactam + compound 2, 8 μM each) is “all isolates”. For the same compound, the “isolates reaching ceftazidime susceptibility breakpoint (≤8 μg/ml)” value in data set [1] (ceftazidime + single adjuvant 8 μM) was “one of five”. Moreover, in data set [1] (meropenem + avibactam + compound 2, 8 μM each), the “isolates reaching meropenem susceptible levels” value was “three out of five”. Further, in data set [1] (meropenem + single adjuvant 8 μM), the “isolates reaching meropenem susceptibility level” value is reported as “zero of five”. In data set [1] (single adjuvant at 8 μM, five isolates), the potentiation of ceftazidime is given as 4 fold. In addition, the MIC with E. coli ATCC 25922 stood at 64 µg/mL; in the data set with MSSE CANWARD-2008 81388 it was 16 µg/mL; against MRSA ATCC 33592, 64 µg/mL.

On to `C[C@@H](O)[C@H]1C(=O)N2C(C(=O)O)=C(S[C@@H]3CN[C@H](C(=O)N(C)C)C3)[C@H](C)[C@H]12` [Meropenem], for which the achievable plasma concentration in data set [2] is over 8 µg/mL.
